This passage reports IC50 results from US20240109900A1, “AZABICYCLIC SHP2 INHIBITORS” (IRBM S.P.A., priority 2021, published 2024).

Where two headings read alike, the source gives them in different places.

Assay [1] concerns ERK phosphorylation in KYSE-520 cells. Briefly: Phospho-ERK cellular assay. Format: cell-based. To be noted: KYSE-520 cells, 2 h at 37° C., phospho-ERK1/2 (Thr202/Tyr204) TR-FRET, read-out: PERK IC50. The procedure, abridged:
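TR-FRET read-out of ERK1/2 Thr202/Tyr204 phosphorylation was taken after overnight antibody incubation at room temperature. Before that, KYSE-520 cells were treated 2 h at 37 °C with compound dilutions and lysed 30 min. Percent inhibition relative to vehicle and cell-free wells was fitted four-parametrically to give IC50.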
In general terms: Time-resolved FRET reads energy transfer from a long-lived donor to a nearby acceptor.

The target in assay [2] is SHP-2 enzyme (Met1-Leu525) (Homo sapiens (Human), UniProt Q06124). Briefly: SHP2 inhibition enzymatic assay. It counts as biochemical. To be noted: 0.5 nM SHP-2 activated by 500 nM IRS1 peptide, 75 μM DiFMUP substrate; read-out: SHP2wt-IC50. The procedure, abridged:
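Compounds were preincubated 30 min with 0.5 nM SHP-2 (Met1-Leu525) plus 500 nM IRS1 activating peptide (pH 7.2 HEPES, 5 mM DTT), then 75 μM DiFMUP substrate reacted 30 min at room temperature. After bpV quench, DiFMUP fluorescence gave % inhibition; four-parameter logistic fit yielded IC50.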

SHP-2 enzyme (Met1-Leu525), sequence (Q06124 1-525): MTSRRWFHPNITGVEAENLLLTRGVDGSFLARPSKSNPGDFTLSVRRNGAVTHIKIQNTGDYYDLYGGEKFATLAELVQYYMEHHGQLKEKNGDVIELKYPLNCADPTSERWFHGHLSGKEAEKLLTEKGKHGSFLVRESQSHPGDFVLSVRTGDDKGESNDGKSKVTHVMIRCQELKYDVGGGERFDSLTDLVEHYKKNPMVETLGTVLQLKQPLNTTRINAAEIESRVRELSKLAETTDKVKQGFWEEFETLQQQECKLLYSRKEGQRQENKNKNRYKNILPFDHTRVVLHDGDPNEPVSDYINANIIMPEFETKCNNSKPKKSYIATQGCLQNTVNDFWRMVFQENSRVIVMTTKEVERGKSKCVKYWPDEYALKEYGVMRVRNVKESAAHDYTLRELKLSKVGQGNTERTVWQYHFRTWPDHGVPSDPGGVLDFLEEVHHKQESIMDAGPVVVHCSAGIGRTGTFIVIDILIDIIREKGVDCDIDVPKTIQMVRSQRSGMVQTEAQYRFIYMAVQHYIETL

Take `Cn1cc2c(Cl)c(-c3n[nH]c4nc(N5CCC6C(C5)C6(CN)c5ncccc5F)cnc34)ccc2n1` (centres unmarked) [Example 49, (3-(3-(4-chloro-2-methyl-2H-indazol-5-yl)-1H-pyrazolo[3,4-b]pyrazin-6-yl)-7-(3-fluoropyridin-2-yl)-3-azabicyclo[4.1.0]heptan-7-yl)methanamine]: the IC50 in assay [1] (Homo sapiens, KYSE-520, 2 h) was below 1000 nM; in assay [2] it was below 500 nM.
In the case of `NC[C@]1(c2ccccc2F)[C@@H]2CCN(c3cnc4c(-c5cccn6nccc56)n[nH]c4n3)C[C@@H]21` [Example 131, ((1S,6R,7R)-7-(2-fluorophenyl)-3-(3-(pyrazolo[1,5-a]pyridin-4-yl)-1H-pyrazolo[3,4-b]pyrazin-6-yl)-3-azabicyclo[4.1.0]heptan-7-yl)methanamine], the IC50 in assay [1] (Homo sapiens, KYSE-520, 2 h) is below 1000 nM; in assay [2], below 500 nM.
As to `NCC1(c2cccc(F)c2)C2CCN(c3cnc4c(-c5cccc(Cl)c5Cl)n[nH]c4n3)CC21` (centres unmarked) [Example 7, (3-(3-(2,3-dichlorophenyl)-1H-pyrazolo[3,4-b]pyrazin-6-yl)-7-(3-fluorophenyl)-3-azabicyclo[4.1.0]heptan-7-yl)methanamine], the IC50 in assay [1] (Homo sapiens, KYSE-520, 2 h) is below 1000 nM; in assay [2] it was below 500 nM.
For the compound `Cc1conc1C1(CN)C2CCN(c3cnc4c(-c5ccc6onc(C)c6c5)n[nH]c4n3)CC21` (centres unmarked) [Example 52, (3-(3-(3-methylbenzo[d]isoxazol-5-yl)-1H-pyrazolo[3,4-b]pyrazin-6-yl)-7-(4-methylisoxazol-3-yl)-3-azabicyclo[4.1.0]heptan-7-yl)methanamine], the IC50 in assay [1] (Homo sapiens, KYSE-520, 2 h) was below 1000 nM; in assay [2], below 500 nM.
In the same order, the values of `Cc1csc(C2(CN)C3CCN(c4nc5nc(Sc6cccnc6C(F)(F)F)cnc5[nH]4)CC32)n1` (centres unmarked) [Example 67, (7-(4-methylthiazol-2-yl)-3-(5-((2-(trifluoromethyl)pyridin-3-yl)thio)-1H-imidazo[4,5-b]pyrazin-2-yl)-3-azabicyclo[4.1.0]heptan-7-yl)methanamine] are below 1000 nM and below 500 nM.
On to `Cc1nc2ccc(-c3n[nH]c4nc(N5CC[C@@H]6[C@H](C5)[C@@]6(CN)c5ccon5)cnc34)c(Cl)c2s1` [Example 124, ((1S,6R,7S)-3-(3-(7-chloro-2-methylbenzo[d]thiazol-6-yl)-1H-pyrazolo[3,4-b]pyrazin-6-yl)-7-(isoxazol-3-yl)-3-azabicyclo[4.1.0]heptan-7-yl)methanamine], for which the IC50 in assay [1] (Homo sapiens, KYSE-520, 2 h) is below 1000 nM; in assay [2], below 500 nM.
In the same order, the values of `NC[C@]1(c2c(F)cccc2F)[C@@H]2CCN(c3cnc4c(-c5cccn6nccc56)n[nH]c4n3)C[C@@H]21` [Example 116, ((1S,6R,7R)-7-(2,6-difluorophenyl)-3-(3-(pyrazolo[1,5-a]pyridin-4-yl)-1H-pyrazolo[3,4-b]pyrazin-6-yl)-3-azabicyclo[4.1.0]heptan-7-yl)methanamine] are below 1000 nM and below 500 nM.
Turning to `Cn1cc2c(Cl)c(-c3n[nH]c4nc(N5CC[C@@H]6[C@H](CC5)C6(CN)c5ccccc5F)cnc34)ccc2n1` (stereo partly drawn) [Example 404, ((1R,7S)-4-(3-(4-chloro-2-methyl-2H-indazol-5-yl)-1H-pyrazolo[3,4-b]pyrazin-6-yl)-8-(2-fluorophenyl)-4-azabicyclo[5.1.0]octan-8-yl)methanamine], the IC50 in assay [1] (Homo sapiens, KYSE-520, 2 h) was below 1000 nM; in assay [2] it was below 500 nM.
In the same order, the values of `Cn1cnc2ccc(-c3n[nH]c4nc(N5CC[C@@H]6[C@H](C5)[C@@]6(CN)c5cc(F)ccc5F)cnc34)c(Cl)c21` [Example 396, ((1S,6R,7R)-3-(3-(7-chloro-1-methyl-1H-benzo[d]imidazol-6-yl)-1H-pyrazolo[3,4-b]pyrazin-6-yl)-7-(2,5-difluorophenyl)-3-azabicyclo[4.1.0]heptan-7-yl)methanamine] are below 1000 nM and below 500 nM.
In the same order, the values of `NC[C@]1(c2ccccc2F)[C@@H]2CCN(c3cnc4c(-c5ccc(O)nc5C(F)(F)F)n[nH]c4n3)C[C@@H]21` [Example 345, 5-(6-((1S,6R,7R)-7-(aminomethyl)-7-(2-fluorophenyl)-3-azabicyclo[4.1.0]heptan-3-yl)-1H-pyrazolo[3,4-b]pyrazin-3-yl)-6-(trifluoromethyl)pyridin-2-ol] are above 5000 nM and below 500 nM.
For `Cc1nccc(-c2n[nH]c3nc(N4CC[C@@H]5[C@H](C4)[C@@]5(CN)c4ccccc4F)cnc23)c1Cl` [Example 189, ((1S,6R,7R)-3-(3-(3-chloro-2-methylpyridin-4-yl)-1H-pyrazolo[3,4-b]pyrazin-6-yl)-7-(2-fluorophenyl)-3-azabicyclo[4.1.0]heptan-7-yl)methanamine], in that order: below 1000 nM and below 500 nM.
In the case of `Cc1csc([C@@]2(CN)[C@@H]3CN(c4cnc5c(-c6ccc7c(cnn7C(F)F)c6Cl)n[nH]c5n4)C[C@@H]32)n1` [Example 506], the IC50 in assay [1] is below 1000 nM; in assay [2], below 500 nM.
On to `NCC1(c2ccsc2)C2CCN(c3nc4nc(Sc5cccnc5C(F)(F)F)cnc4[nH]3)CC21` (centres unmarked) [Example 64, (7-(thiophen-3-yl)-3-(5-((2-(trifluoromethyl)pyridin-3-yl)thio)-1H-imidazo[4,5-b]pyrazin-2-yl)-3-azabicyclo[4.1.0]heptan-7-yl)methanamine], for which the IC50 in assay [1] (Homo sapiens, KYSE-520, 2 h) is 1000 to 5000 nM; in assay [2], below 500 nM.
As to `Cc1cc(C2(CN)C3CCN(c4cnc5c(-c6ccnc7c6OC[C@@H]6CCCN76)n[nH]c5n4)CC32)no1` (stereo partly drawn) [Example 29, (7-(5-methylisoxazol-3-yl)-3-(3-((S)-6a,7,8,9-tetrahydro-6H-pyrido[3,2-b]pyrrolo[1,2-d][1,4]oxazin-4-yl)-1H-pyrazolo[3,4-b]pyrazin-6-yl)-3-azabicyclo[4.1.0]heptan-7-yl)methanamine], the IC50 in assay [1] (Homo sapiens, KYSE-520, 2 h) is above 5000 nM; in assay [2], 500 to 3000 nM.
In the same order, the values of `Cc1cc([C@@]2(CN)[C@@H]3CCN(c4cnc5c(-c6ccnc7c(F)cccc67)n[nH]c5n4)C[C@@H]32)no1` [Example 114, ((1S,6R,7S)-3-(3-(8-fluoroquinolin-4-yl)-1H-pyrazolo[3,4-b]pyrazin-6-yl)-7-(5-methylisoxazol-3-yl)-3-azabicyclo[4.1.0]heptan-7-yl)methanamine] are below 1000 nM and below 500 nM.
With `Cn1c(-c2n[nH]c3nc(N4CC[C@@H]5[C@H](C4)[C@@]5(CN)c4ccccc4F)cnc23)cccc1=O` [Example 198, 6-(6-((1S,6R,7R)-7-(aminomethyl)-7-(2-fluorophenyl)-3-azabicyclo[4.1.0]heptan-3-yl)-1H-pyrazolo[3,4-b]pyrazin-3-yl)-1-methylpyridin-2(1H)-one], the IC50 is below 1000 nM in assay [1] (Homo sapiens, KYSE-520, 2 h) and below 500 nM in assay [2].
On to `COc1c(F)cc(-c2n[nH]c3nc(N4CC[C@@H]5[C@H](C4)[C@@]5(CN)c4ccccc4F)cnc23)c2cccnc12` [Example 225, ((1S,6R,7R)-3-(3-(7-fluoro-8-methoxyquinolin-5-yl)-1H-pyrazolo[3,4-b]pyrazin-6-yl)-7-(2-fluorophenyl)-3-azabicyclo[4.1.0]heptan-7-yl)methanamine], for which the IC50 in assay [1] (Homo sapiens, KYSE-520, 2 h) was below 1000 nM; in assay [2], below 500 nM.
In the same order, the values of `Cc1cc(C2(CN)C3CCN(c4cnc5c(-c6ccnc7ccsc67)n[nH]c5n4)CC32)no1` (centres unmarked) [Example 18, (7-(5-methylisoxazol-3-yl)-3-(3-(thieno[3,2-b]pyridin-7-yl)-1H-pyrazolo[3,4-b]pyrazin-6-yl)-3-azabicyclo[4.1.0]heptan-7-yl)methanamine] are below 1000 nM and below 500 nM.
For `Cc1cc([C@@]2(CN)[C@@H]3CN(c4cnc5c(-c6ccc7nn(C)cc7c6Cl)n[nH]c5n4)C[C@@H]32)no1` [Example 275, ((1R,5S,6r)-3-(3-(4-chloro-2-methyl-2H-indazol-5-yl)-1H-pyrazolo[3,4-b]pyrazin-6-yl)-6-(5-methylisoxazol-3-yl)-3-azabicyclo[3.1.0]hexan-6-yl)methanamine], the values for the concentration for half-maximal inhibition (IC50) in assay [1] and in assay [2] were below 1000 nM and below 500 nM, respectively.
Turning to `NC[C@]1(c2ccccc2)[C@@H]2CN(c3cnc(Sc4cccnc4C(F)(F)F)c(N)n3)C[C@@H]21` [Example 104, 6-((1R,5S,6s)-6-(aminomethyl)-6-phenyl-3-azabicyclo[3.1.0]hexan-3-yl)-3-((2-(trifluoromethyl)pyridin-3-yl)thio)pyrazin-2-amine], the figures for the IC50 in assay [1] (Homo sapiens) and in assay [2] were above 5000 nM and below 500 nM, respectively.
Take `Cn1cc2c(Cl)c(-c3n[nH]c4nc(N5CCC6C(C5)C6(CN)c5cc(C6CC6)on5)cnc34)ccc2n1` (centres unmarked) [Example 48, (3-(3-(4-chloro-2-methyl-2H-indazol-5-yl)-1H-pyrazolo[3,4-b]pyrazin-6-yl)-7-(5-cyclopropylisoxazol-3-yl)-3-azabicyclo[4.1.0]heptan-7-yl)methanamine]: the IC50 in assay [1] (Homo sapiens, KYSE-520, 2 h) was below 1000 nM; in assay [2], below 500 nM.
For `NC[C@]1(c2cc(F)ccc2F)[C@@H]2CCN(c3cnc(Sc4ccnc(-n5cccn5)c4Cl)cn3)C[C@@H]21` [Example 402, ((1S,6R,7R)-3-(5-((3-chloro-2-(1H-pyrazol-1-yl)pyridin-4-yl)thio)pyrazin-2-yl)-7-(2,5-difluorophenyl)-3-azabicyclo[4.1.0]heptan-7-yl)methanamine], in that order: below 1000 nM and below 500 nM.

In general, IC50 refers to the point on the concentration scale where inhibition reaches its midpoint.
